The values below come from paper PMC6389928, “Biomolecular Interaction, Anti-Cancer and Anti-Angiogenic Properties of Cobalt(III) Schiff Base Complexes” (Scientific Reports, 2019).

Like-named read-outs stand apart in the source and are kept apart here.

The subject of series [1] is DNA. To be noted: cited from earlier work.
A further series has as its system A549 lung carcinoma cell. Put plainly: MTT assay on A549 cells. To be noted: A549 lung cancer cells, tested separately. From the text:
The anti-proliferative property of the complexes 1 and 2 at different concentrations on A549 lung carcinoma cell and monkey kidney epithelial cell Vero was examined by adopting MTT assay (Fig. S7). […] The naked cobalt acetate and ligands salen and salophen were separately tested on A549 cells to understand if metal chelation is the principal basis of the anticancer activity of the complexes.
Culture: Human lung cancer cells (A549) were received from National Centre for Cell Science (NCCS) Pune, India. Vero cells were obtained from ATCC. The cells were grown at humidified atmosphere of 5% CO2 in an incubator at 37 °C (Forma, Thermo Scientific, USA) in DMEM medium (Invitrogen) containing 10% FBS (Sigma-Aldrich, St. Louis, Mo, USA), 100 μg/mL of penicillin and 100 μg/mL streptomycin were used as antibiotics (Himedia, Mumbai, India). […] The cells were seeded in 96 well plates (5000 A549 cells per well) and allowed to attach for 24 h. The cells were then incubated with different concentrations of the metal complexes 1 and 2 dissolved in 100% dimethyl sulfoxide (DMSO) (Sigma-Aldrich) and prepared to a final dilution of 0.02% of DMSO.
In the determination of IC50 value, 0.02% DMSO was used as the solvent control. After the end of incubation period (24 h), the medium was aspirated carefully and replaced with new medium. The formazan formed was dissolved in100 μL of 100% DMSO to each well. The absorbance was monitored at 570 nm using a 96 well plate reader (Bio-Rad, Hercules, California, USA). All experiments were repeated for a minimum of three times when each experiment was done in two replicates.

The test system of series [2] is DNA. The experiment in a line: Viscosity measurement of DNA. Format: binding. To be noted: 30.0 ± 0.2 °C, increasing amounts of compound. From the text: The mode of interaction between DNA and complexes has been further confirmed using viscosity measurements. The intercalation between DNA and metal complex causes lengthening of the DNA helix and increases DNA’s relative viscosity. Ethidium bromide (EB) is a well known DNA intercalator which was used as a standard to make sure our viscosity determination was working properly. […] The increase in relative viscosity follows the DNA-intercalating ability and the order of relative viscosity is EB > 2 > 1.
CD spectra of CT–DNA in the absence and presence of cobalt(III) complexes 1 and 2 were recorded in phosphate buffer. Each sample solution was scanned in the range of 200–320 nm, and final CD spectra were generated after averaging three scans subtracting the buffer background. Viscosity experiments were performed using an Ubbelohde viscometer at a constant temperature (30.0 ± 0.2 °C).

Consider `CCCCCCCCCCCN.[Cl-].[Co+3].[O-][Cl+3]([O-])([O-])[O-].[O-][Cl+3]([O-])([O-])[O-].c1ccc(-c2ccccn2)nc1.c1ccc(-c2ccccn2)nc1` [cis-[Co(bpy)2(C11H23NH2)Cl](ClO4)2], for which, in the series on DNA [1], the Kb is 22100 M⁻¹. Turning to `Oc1ccccc1C=Nc1ccccc1N=Cc1ccccc1O` [salophen, N,N’-bis(salicylidene)-1,2-phenylenediamine], the “concentration up to which not cytotoxic” value in the series on A549 lung carcinoma cell was greater than 200 µM. For `CCCCCCCCCCCCCCN.[Cl-].[Co+3].[O-][Cl+3]([O-])([O-])[O-].[O-][Cl+3]([O-])([O-])[O-].c1ccc(-c2ccccn2)nc1.c1ccc(-c2ccccn2)nc1` [cis-[Co(bpy)2(C14H29NH2)Cl](ClO4)2], the Kb in the series with DNA [1] is 28600 M⁻¹. Turning to `CCCCCCCCCCCCCCN.NCCN.NCCN.[Cl-].[Co+3].[O-][Cl+3]([O-])([O-])[O-].[O-][Cl+3]([O-])([O-])[O-]` [cis-[Co(en)2(C14H29NH2)Cl](ClO4)2], in the series with DNA [1], the Kb was 25900 M⁻¹. `CCCCCCCCCCCCN.CCCCCCCCCCCCN.NCCNCCN.[Cl-].[Co+3].[O-][Cl+3]([O-])([O-])[O-].[O-][Cl+3]([O-])([O-])[O-]` [[Co(dien)(DA)2Cl](ClO4)2]: the Kb in the series on DNA [1] was 14318 M⁻¹. As to [Co(dien)(CA)Cl2](ClO4), the Kb in the series on DNA [1] is 9005.2 M⁻¹. `CCCCCCCCCCCCN.NCCNCCN.[Cl-].[Cl-].[Co+3].[O-][Cl+3]([O-])([O-])[O-]` [[Co(dien)(DA)Cl2](ClO4)]: in the series on DNA [1], the Kb was 3110.8 M⁻¹. `CC[n+]1c(-c2ccccc2)c2cc(N)ccc2c2ccc(N)cc21` [EB, ethidium bromide, reference compound]: in the series with DNA [1] (typical classical intercalator), the Kb was 494000 M⁻¹. Also, in the series with DNA [2], the “effect on relative viscosity of DNA” value is listed as “significant increase in the viscosity of the DNA solutions”. As to `CC(=O)[O-].CC(=O)[O-].O.O.O.O.[Co+2]` [cobalt acetate, Cobalt(II) acetate tetrahydrate], in the series on A549 lung carcinoma cell, the “concentration up to which not cytotoxic” value is greater than 200 µM. On the same count and under the same terms, then `Oc1ccccc1C=NCCN=Cc1ccccc1O` [salen, N,N’-bis(salicylidene)ethylenediamine], with greater than 200 µM.
